This is an account of results in patent US10919843B2, “Cannabidiol derivatives as inhibitors of the HIF prolyl hydroxylases activity” (priority 2017, dated 2021).

The subject of assay [1] is HIF-1α. The experiment in a line: HIF-1α transactivation assay in NIH-3T3-EPO-Luc cells. In kind it is cell-based. Conditions: for Efficacy HIF-1α (IRA coefficient): relative to 150 μM DFX; for EC50: read-out: Potency EC50 HIF-1α. As to the method: (§1) To investigate the biological activities of the different compounds, HIF-1α transactivation assays were performed either in NIH-3T3-EPO-Luc cells (Table 1) or in HaCaT-EPO-luc cells (Table 2). The NIH3T3-EPO-luc and HaCaT-EPO-luc cells have been stably transfected with the plasmid Epo-Luc plasmid. The EPO-Hypoxia Response Element (HRE)-luciferase reporter plasmid contains three copies of the HRE consensus sequence from the promoter of the erythropoietin gene fused to the luciferase gene.
NIH3T3-EPO-luc cells were maintained at 37° C. in a humidified atmosphere containing 5% CO2 in DMEM supplemented with 10% fetal calf serum (FBS), and 1% (v/v) penicillin/streptomycin. Deferoxamine (DFX) was purchased from Sigma-Aldrich (USA). Cells (1×10^4/well in 96-well plates) were seeded the day before the assay. The next day, the cells were stimulated with increasing concentrations of either Cannabidiol (CBD), VCE-004 or compounds II to X. After six hours of stimulation the cells were lysed in 25 mM Tris-phosphate pH 7.8, 8 mM MgCl2, 1 mM DTT, 1% Triton X-100, and 7% glycerol during 15 min at RT in a horizontal shaker. Luciferase activity was measured using a microplate luminometer (Berthold) following the instructions of the luciferase assay kit (Promega, Madison. Wis., USA).
(§2) HaCaT-EPO-Luc cells were maintained at 37° C. in a humidified atmosphere containing 5% CO2 in DMEM supplemented with 10% fetal calf serum (FBS), and 1% (v/v) penicillin/streptomycin. The cells (1×10^5/well in 24-well plates) were seeded the day before the assay and then stimulated with increasing concentrations of either Cannabidiol (CBD), VCE-004 or compounds II to X. After six hours of stimulation the cells were lysed in 25 mM Tris-phosphate pH 7.8, 8 mM MgCi2, 1 mM DTT, 1% Triton X-100, and 7% glycerol during 15 min at RT in a horizontal shake. Luciferase activity was measured in the cell lysates as indicated for NIH3T3-EPO-Luc cells. The RLUs are calculated and the EC50 and IRA (Intrinsic relative activity) values in both cell lines were determined relative to 150 μM deferoxamine (DFX) using the following equation: IRA coefficient=(EC50-DFX×Emax)/(EC50×Emax-DFX), where EC50 and Emax denote EC50 and Emax of the agonist, and EC50-DFX and Emax-DFX denote EC50 and Emax values of the standard agonist DFX (Table 1 and 2).

In assay [2] the test system is HIF-1α. Briefly: HIF-1α transactivation assay in HaCaT-EPO-luc cells. In kind it is cell-based. The note with it: for Efficacy HIF-1α (IRA coefficient): relative to 150 μM DFX; for EC50: read-out: Potency EC50 HIF-1α. The method, then:
as §1, §2

Setting [3] is: NIH-3T3-EPO-Luc cells, 6 h stimulation.
Where [4] appears, read: HaCaT-EPO-Luc cells, 6 h stimulation.

Broadly, the EC50 is the concentration at which the effect is half-maximal.

Consider `C=C(C)[C@@H]1CCC(C)=C[C@H]1C1=C(O)C(=O)C(CCCCC)=C(NCCC(C)C)C1=O` [X], for which, in the assay with HIF-1α [1] (setting [3]), the “Efficacy HIF-1α (IRA coefficient)” value is given as 0.29 and the concentration for a half-maximal effect (EC50) is 3.3 µM. Besides, in the assay on HIF-1α [2] (setting [4]), the “Efficacy HIF-1α (IRA coefficient)” value was 10.35 and the concentration giving a half-maximal response (EC50) turned out to be 1.2 µM.

Turning to `C=C(C)[C@@H]1CCC(C)=C[C@H]1C1=C(O)C(=O)C(CCCCC)=C(NCc2ccccc2)C1=O` [Compound VIII], the EC50 amounted to 2.6 µM with HIF-1α [1] (6 h) and 1.4 µM in the assay on HIF-1α [2] (6 h).

Regarding `C=C(C)[C@@H]1CCC(C)=C[C@H]1C1=C(O)C(=O)C(CCCCC)=C(NC)C1=O` [Compound VI], the 50% effective concentration (EC50) in the assay with HIF-1α [1] (6 h) is 2.8 µM; with HIF-1α [2] (6 h), 4 µM. Besides, the “Efficacy HIF-1α (IRA coefficient)” value with HIF-1α [1] (setting [3]) is 0.61; in the assay with HIF-1α [2] (setting [4]), 3.02.

`C=C(C)[C@@H]1CCC(C)=C[C@H]1C1=C(O)C(=O)C(CCCCC)=C(NCCCC)C1=O` [Compound V]: the EC50 in the assay on HIF-1α [1] (6 h) is 1.8 µM; with HIF-1α [2] (6 h), 1.9 µM. Further, the “Efficacy HIF-1α (IRA coefficient)” value is reported as 0.85 in the assay on HIF-1α [1] (setting [3]) and 5.01 in the assay on HIF-1α [2] (setting [4]).

`C=C(C)[C@@H]1CCC(C)=C[C@H]1C1=C(O)C(=O)C(CCCCC)=C(NC(C)C)C1=O` [Compound VII]: the EC50 is 2.9 µM with HIF-1α [1] (6 h) and 5.5 µM in the assay on HIF-1α [2] (6 h). For the same compound, the “Efficacy HIF-1α (IRA coefficient)” value in the assay on HIF-1α [1] (setting [3]) came out at 0.68; in the assay with HIF-1α [2] (setting [4]) it was 2.3.

In the case of `C=C(C)[C@@H]1CCC(C)=C[C@H]1C1=C(O)C(=O)C(CCCCC)=C(NCC(C)(C)C)C1=O` [IX], the half-maximal effective concentration (EC50) was found to be 2.5 µM in the assay with HIF-1α [1] (6 h) and 1.4 µM in the assay on HIF-1α [2] (6 h).

Take `C=C(C)[C@@H]1CCC(C)=C[C@H]1C1=C(O)C(=O)C(CCCCC)=C(NCC)C1=O` [II]: the values for the concentration for a half-maximal effect (EC50) in the assay on HIF-1α [1] (6 h) and with HIF-1α [2] (6 h) were 4.3 µM and 3.2 µM, respectively. The “Efficacy HIF-1α (IRA coefficient)” value with HIF-1α [1] (setting [3]) was determined as 0.46; with HIF-1α [2] (setting [4]), 3.87.

Regarding `C=C(C)[C@@H]1CCC(C)=C[C@H]1C1=C(O)C(=O)C(CCCCC)=C(NCCCCC)C1=O` [III], the EC50 with HIF-1α [1] (6 h) amounted to 3.6 µM; with HIF-1α [2] (setting [4]), 1.7 µM. In addition, the “Efficacy HIF-1α (IRA coefficient)” value in the assay on HIF-1α [1] (setting [3]) is recorded as 0.28; in the assay on HIF-1α [2] (setting [4]) it was 5.84.

`C=C(C)[C@@H]1CCC(C)=C[C@H]1C1=C(O)C(=O)C(CCCCC)=C(NCCC(C)C)C1=O` [IX]: the “Efficacy HIF-1α (IRA coefficient)” value in the assay with HIF-1α [1] (setting [3]) is on record as 0.8; in the assay on HIF-1α [2] (setting [4]), 8.64.

Consider `C=C(C)[C@@H]1CCC(C)=C[C@H]1C1=C(O)C(=O)C(CCCCC)=C(NCC(C)C)C1=O` [IV], for which the EC50 in the assay on HIF-1α [1] (6 h) amounted to 3.2 µM; in the assay with HIF-1α [2] (6 h), 1.6 µM. Also, the “Efficacy HIF-1α (IRA coefficient)” value turned out to be 0.61 in the assay on HIF-1α [1] (setting [3]) and 5.64 in the assay with HIF-1α [2] (setting [4]).
